Results: patent US20220290103A1, “METHODS AND COMPOSITIONS USING AUXOTROPHIC REGULATABLE CELLS” (AUXOLYTIC LTD, priority 2019, published 2022)

Key:
[1] = test system: UMPS-KO T cells mixed with wild-type T cells; test: 5-FOA selection in mixed population of T cells, FACS; type: cell-based, human
Excerpt: To evaluate the possibility to select for UMPS^KO/KO cells with 5-FOA, the sorted cells were mixed with wild-type cells, which were labeled with different tracking dyes, and cultured in the presence or absence of 5-FOA. In part of the samples, 5-FOA was only added on the first day (Day 0) while in another group it was supplemented daily. Table 30 and FIG. 7C show the percent (%) of the UMPS-KO T cells (labelled with eFluor670) over time when culturing with or without 5-FOA.
In fact, FACS analysis of a culture of a mixed population of UMPS knockout and wild-type T cells with 5-FOA. UMPS-KO T cells were labeled with eFluor670, and wild-type cells were labeled with carboxyfluorescein succinimidyl ester (CFSE). […] On Day 0 in the control group not treated with 5-FOA, 47.7% of the cells were UMPS-KO T cells, and 52.1% were wild-type cells. On Day 3 in the group with 5-FOA supplemented daily, 74.0% of the cells were UMPS-KO T cells, while 25.8% were wild-type cells. On Day 3 in the control group not treated with 5-FOA, 43.1% of the cells were UMPS-KO T cells, and 56.4% were wild-type cells.

Mock T cells = test: 5-FOA selection, cell counts after 4 days; type: cell-based, human; conditions: for Average number of cells per volume unit: grown in 5-FOA 4 days, UMP + Urid; for Average of cells per volume unit: grown in 5-FOA without serum
Protocol: (§1) 5-FOA selects for uracil auxotrophic cells in other organisms (e.g. Boeke et al. 1984, Mol. Gen. Genet. 197(2):345-6), which is hereby incorporated by reference in its entirety). To investigate the potential utility of 5-FOA for the selection of uracil auxotrophs among human cells, the UMPS gene was targeted in human T cells by Cas9-gRNA complex electroporation followed by recovery (as shown in Example 2) followed by an assay of resistance to 5-FOA treatment (FIG. 3A). Cells were grown in 5-FOA and a variety of combinations of serum and uracil sources for 4 days before cell counting was performed.

UMPS-7 targeted T cells = test: 5-FOA selection, cell counts after 4 days; type: cell-based, human; conditions: for Average number of cells per volume unit: UMPS-7, grown in 5-FOA 4 days, UMP + Urid; for Average of cells per volume unit: UMPS-7, grown in 5-FOA without serum; for Survival in 5-FOA compared to control: both mock treated and UMPS targeted cells
Protocol: as §1

UMPS^KO/KO hESCs (GFP+) = test: 5-FOA resistance in co-culture, FACS; type: cell-based, human
Excerpt: (§2) To assess resistance to 5-FOA, the UMPS-KO hESCs were genetically engineered to express GFP from an expression cassette integrated into a safe-harbor locus for easier identification in co-culture with UMPS-WT cells.
(§3) These UMPS^KO/KO hESCs were mixed with UMPS^WT/WT cells that were not expressing GFP and followed up by fluorescence-activated cell sorting (FACS) analysis in the presence of different concentrations of 5-FOA. Table 16 provides counts of viable GFP+ and GFP− cells after culture with different 5-FOA concentrations.

UMPS^WT/WT cells (GFP−) = test: 5-FOA resistance in co-culture, FACS; type: cell-based, human; conditions: all tested 5-FOA concentrations
Excerpt: as §2, §3

[2] = test system: UMPS^KO/KO/GFP^+ K562 cells mixed with UMPS^WT/WT/GFP-negative K562 cells; test: 5-FOA resistance in mixed culture; type: cell-based, human
Protocol: To determine the resistance of UMPS knockout cells to 5-FOA the purified UMPS^KO/KO/GFP^+ K562 cells were mixed at an equal ratio with UMPS^WT/WT/GFP-negative K562 cells. The cells were cultured in the presence of Uridine and different concentrations of 5-FOA (FIG. 6F).

UMPS knockout T cells [3] = test: Time course of cell counts with/without UMP or uridine; type: cell-based, human; conditions: to the same level as mock edited cells
Protocol: (§4) Cells were cryopreserved in BAMBANKER™ medium. After thawing cells were cultured at 37° C., 5% CO2 in X-Vivo 15 (Lonza) supplemented with or without 5% human serum (Sigma-Aldrich) and […] human recombinant IL-2 (Peprotech) and 10 ng/ml human recombinant IL-7 (BD Biosciences). UMP or Uridine was added at 250 μg/ml. 5-FOA was added at 100 μg/ml to 1 mg/ml. During culture, medium was refreshed every 2 days.
(§5) Genomic DNA was harvested using QUICKEXTRACT™ DNA Extraction Kit (Epicentre). Cells were counted on an automated cell counter using Trypan blue staining or on a CytoFLEX flow cytometer (Beckman Coulter) with automatic plate reader using COUNTBRIGHT™ beads (ThermoFisher) as a reference for normalizing the values. Alternatively, cells were analyzed after staining with fluorochrome-labelled antibodies (Biolegend) on an ACCURI™ C6 flow cytometer (BD Biosciences), which also measures volumes, or a FACS ARIA™ II SORP cell sorter (BD Biosciences). Data was analyzed using Excel (Microsoft) and FlowJo software (Tree Star).
(§6) T Cells were electroporated and edited as in Example 2 and allowed to recover for a 4-day period in medium with serum, uridine, and UMP. On day 4, cells were shifted to UMP, uridine, or uracil source media.

Mock edited T cells = test: as above; type: cell-based, human; conditions: with metabolite 250 μg/ml
Protocol: as §4, §5, §6

CCR5 knockout T cells = test: as above; type: cell-based, human; conditions: with metabolite 250 μg/ml
Protocol: as §4, §5, §6

UMPS locus [4] = test: InDel frequency at end of culture; type: cell-based, human; conditions: UMPS knockout T cells not exposed to 5-FOA, with metabolite, day 8
Excerpt: To confirm the results on the genomic level, genomic DNA was harvested at the end of the experiment and InDels were quantified (FIG. 5D-FIG. 5E). FIG. 5D compares the frequency of InDels in different culture conditions for cells not exposed to 5-FOA.

UMPS knockout T cells [5] = test: Cell counts over time after electroporation (Trypan blue); type: cell-based, human; conditions: supplemented at 250 μg/ml
Excerpt: To evaluate whether the UMPS knockout leads to differential cell proliferation if cultured without the addition of Uridine or Uridine monophosphate (UMP), the cell counts in culture were followed over time by automatic cell counting with Trypan blue staining. UMPS knockout led to lower cell counts from day 2 after electroporation, compared to cells that were mock electroporated or electroporated using Cas9 targeting a different genomic locus (i.e., CCR5) (FIG. 5B).
In contrast, cell proliferation was not impaired after UMPS knockout if UMP or Uridine were supplemented at high concentrations (250 μg/ml each) (FIG. 5C).

[6] = also broken down in the liver; cited from earlier work
UMPS^KO/KO hESCs = test: Auxotrophy assay with different uridine concentrations; type: cell-based, human; conditions: 2.5-250 μg/ml uridine, day 4
Protocol: The UMP S locus was disrupted in the hESCs by electroporation of Cas9 RNP and selection of a clone with InDels in exon 1 as evaluated by amplification and Sanger sequencing of the genomic locus. For gene editing, hESCs were treated with 10 μm ROCK inhibitor (Y-27632) for 24 hours before electroporation. Cells at 70-80% confluence were harvested with ACCUTASE® solution (Life Technologies). 500,000 cells were used per reaction with a SpCas9 concentration of 150 μg/mL (Integrated DNA Technologies) and a Cas9:sgRNA molar ratio of 1:3 and electroporation performed in P3 Primary Cell solution (Lonza) in 16-well NUCLEOCUVETTE™ Strips in the 4D NUCLEOFECTOR system (Lonza). Immediately after electroporation, cells were transferred into one well of a […]® protein mixture (Corning, Inc.)-coated 24 well plate containing 500 μl of mTeSR™ media ([…] Technologies) with 10 μM Y-27632. Media was changed 24 hours after editing and Y-27632 was removed 48 hours after.
An auxotrophy assay was performed over four days with different concentrations of uridine. Microscope photos of wells were taken on day 4 after seeding UMPS^KO/KO hESCs at similar densities and culturing in the presence of different uridine concentrations. […] Quantification of viable cells on day 4 after seeding to evaluate the effect of different uridine concentrations is shown in Table 15.

UMPS locus [7] = test: sgRNA activity screening, InDel quantification by ICE and ICE-D; type: cell-based, human; conditions: activated T cells, 4 days after electroporation with Cas9
Excerpt: sgRNAs were acquired with chemical modifications from Synthego Corporation. The sgRNAs were complexed with Cas9 protein (IDT) at a molar ration of 2.5:1 (sgRNA:protein) and electroporated into activated T cells using a 4D-NUCLEOFECTOR™ system (Lonza). 4 days later, cells were harvested, and genomic DNA extracted using QUICKEXTRACT™ DNA Extraction Kit (Epicentre) according to the manufacturer's protocol. The sgRNA target site was amplified with specific primers (Table 18) and the amplicon sequenced by Sanger sequencing (MCLab, South San Francisco).
InDel quantification was performed on the sequences using the interference of CRISPR edits (ICE) and ICE-D online tools (ice.synthego.com) (FIG. 5A).

For `O=C(O)c1[nH]c(=O)[nH]c(=O)c1F` [5-FOA, 5-fluoroorotic acid], the “Percent of UMPS^KO/KO cells in mixed cell population” value ([1]; 5-FOA daily, Day 3) was 74.0%, the “wild-type cells among the cells (FACS)” value ([1]; 5-FOA only on the first day, Day 0) was 56.0% and the “UMPS-KO T cells among the cells (FACS)” value ([1]; 5-FOA supplemented daily, Day 3) was 74.0%. The “Average number of cells per volume unit” value (Mock T cells; No Serum) was 49125.44, the “Average number of cells per volume unit” value (Mock T cells; With Serum) was 63071.71 and the “Average of cells per volume unit” value (Mock T cells; UMP) was 24770.99. For the same molecule, the “Average of cells per volume unit” value (Mock T cells; Uridine) was 53052.43, the “Average number of cells per volume unit” value (UMPS-7 targeted T cells; No Serum) was 72385.14 and the “Average number of cells per volume unit” value (UMPS-7 targeted T cells; With Serum) was 72181.87. For the same molecule, the “Average of cells per volume unit” value (UMPS-7 targeted T cells; UMP) was 58299.26, the “Average of cells per volume unit” value (UMPS-7 targeted T cells; Uridine) was 77755.72 and the “Tolerance of UMPS-KO cells” value (UMPS^KO/KO hESCs (GFP+); 5-FOA 0.25 μg/ml) was “tolerated”. The “Proliferation of UMPS-KO cells” value (UMPS^KO/KO hESCs (GFP+); 5-FOA concentrations higher than 0.25 μg/ml) was “impaired proliferation”, the “Sensitivity of UMPS-WT cells” value (UMPS^WT/WT cells (GFP−)) was “sensitive” and the “Proliferation of cells with UMP knockouts” value ([2]; 5-FOA 10 and 100 μg/ml) was “proliferated well”. For the same molecule, the “Cell growth of cells with UMP knockouts” value ([2]; highest 5-FOA concentration) was “slowed their cell growth down”.

With `O=c1ccn([C@@H]2O[C@H](COP(=O)(O)O)[C@@H](O)[C@H]2O)c(=O)[nH]1` [UMP, Uridine monophosphate] the “Survival in 5-FOA compared to control” value (UMPS-7 targeted T cells) was “improved the survival”, the “Growth of UMPS edited culture” value (UMPS knockout T cells [3]) was “rescued the growth” and the Cell density (Mock edited T cells; Day 4) was 3.80E+06 cells per ml. The Cell density (Mock edited T cells; Day 8) was 3.90E+06 cells per ml, the Cell density (CCR5 knockout T cells; Day 2) was 1.80E+06 cells per ml and the Cell density (CCR5 knockout T cells; Day 6) was 3.80E+06 cells per ml. The “Frameshift InDel frequency” value (UMPS locus [4]) was 46.1%, the “Overall InDel frequency” value (UMPS locus [4]) was 71.1% and the “Cell proliferation after UMPS knockout” value (UMPS knockout T cells [5]) was “not impaired”.

In the case of `O=c1ccn([C@@H]2O[C@H](CO)[C@@H](O)[C@H]2O)c(=O)[nH]1` [Uridine, uridine], the “Absorption in the gastrointestinal tract” value [6] is listed as “poorly absorbed”, the “Survival in 5-FOA compared to control” value (UMPS-7 targeted T cells) is listed as “improved the survival” and the “Proliferation (microscope photos)” value (UMPS^KO/KO hESCs) is listed as “proliferated”. The “Growth of UMPS edited culture” value (UMPS knockout T cells [3]) was “rescued the growth”, the Cell density (Mock edited T cells; Day 4) was 3.90E+06 cells per ml and the Cell density (CCR5 knockout T cells; Day 4) was 3.70E+06 cells per ml. The “Frameshift InDel frequency” value (UMPS locus [4]) was 52.5%, the “Overall InDel frequency” value (UMPS locus [4]) was 77.0% and the “Cell proliferation after UMPS knockout” value (UMPS knockout T cells [5]) was “not impaired”.

B1: UMPS-7: sgRNA targeting exon 1 of UMPS, SEQ ID NO: 1; target sequence + PAM SEQ ID NO: 5 (nucleic acid)
guide: GCCCCGCAGAUCGAUGUAGAGUUUUAGAGCUAGAAAUAGCAAGUUAAAAUAAGGCUAGUCCGUUAUCAACUUGAAAAAGUGGCACCGAGUCGGUGCUUUU
modifications: listed as RNA, chemistry not given here
With B1 the “ICE InDels” value (UMPS locus [7]) was 39% and the “ICE-D InDels” value (UMPS locus [7]) was 93%.
